Laboratory results as given in ChEMBL document CHEMBL3580595, “Design, synthesis and biological evaluation of novel trimethylpyrazine-2-carbonyloxy-cinnamic acids as potent cardiovascular agents” (Medchemcomm, 2014).

Tests used:
[1] = Anti-platelet activity in rabbit platelet-rich plasma assessed as inhibition of ADP-induced platelet aggregation at 100 uM incubated for 5 mins at 37 degC by aggregometry; format: functional; settings: Oryctolagus cuniculus
[2] = Anti-platelet activity in rabbit platelet-rich plasma assessed as inhibition of ADP-induced platelet aggregation at 50 uM incubated for 5 mins at 37 degC by aggregometry; format: functional; settings: Oryctolagus cuniculus
[3] = Anti-platelet activity in rabbit platelet-rich plasma assessed as inhibition of ADP-induced platelet aggregation at 25 uM incubated for 5 mins at 37 degC by aggregometry; format: functional; settings: Oryctolagus cuniculus
[4] = Anti-platelet activity in rabbit platelet-rich plasma assessed as inhibition of ADP-induced platelet aggregation at 12.5 uM incubated for 5 mins at 37 degC by aggregometry; format: functional; settings: Oryctolagus cuniculus
[5] = Anti-platelet activity in rabbit platelet-rich plasma assessed as inhibition of ADP-induced platelet aggregation incubated for 5 mins at 37 degC by aggregometry; format: functional; settings: Oryctolagus cuniculus
[6] = Cytoprotective activity against H2O2-induced cytotoxicity in human EAhy926 cells at 100 uM pre-incubated for 24 hrs before H2O2 challenge for 12 hrs by MTT assay; format: functional, EA.hy 926
[7] = Cytoprotective activity against H2O2-induced cytotoxicity in human EAhy926 cells at 50 uM pre-incubated for 24 hrs before H2O2 challenge for 12 hrs by MTT assay; format: functional, EA.hy 926
[8] = Cytoprotective activity against H2O2-induced cytotoxicity in human EAhy926 cells at 25 uM pre-incubated for 24 hrs before H2O2 challenge for 12 hrs by MTT assay; format: functional, EA.hy 926
[9] = Cytoprotective activity against H2O2-induced cytotoxicity in human EAhy926 cells at 12.5 uM pre-incubated for 24 hrs before H2O2 challenge for 12 hrs by MTT assay; format: functional, EA.hy 926
[10] = Cytoprotective activity against H2O2-induced cytotoxicity in human EAhy926 cells pre-incubated for 24 hrs before H2O2 challenge for 12 hrs by MTT assay; format: functional, cell-based; settings: EA.hy 926

Compound | inhibition at 100 µM [1] [%] | inhibition at 50 µM [2] [%] | inhibition at 25 µM [3] [%] | inhibition at 12.5 µM [4] [%] | IC50 [5] [µM] | Activity [6] [%] | Activity [7] [%] | Activity [8] [%] | Activity [9] [%] | EC50 [10] [µM]
Cc1nc(C)c(C(=O)Oc2ccc(/C=C/C(=O)O)cc2)nc1C | 25.3 | 41.7 | 53.3 | 64.3 | 37.8 | 93.2 | 74.1 | 46.6 | 34.2 | 38
CCOC(=O)/C=C/c1ccc(OC(=O)c2nc(C)c(C)nc2C)cc1 | 20.5 | 32.2 | 39.1 | 68 | 24.4 | 96.1 | 62.6 | 58.8 | 42.7 | 34.9
Cc1nc(C)c(C(=O)Oc2cccc(/C=C/C(=O)O)c2)nc1C | 8.2 | 28 | 38.5 | 73.4 | 26.4 | 103 | 75.3 | 64.3 | 61.6 | 24
CCOC(=O)/C=C/c1cccc(OC(=O)c2nc(C)c(C)nc2C)c1 | 69.4 | 59.6 | 62.2 | 25.1 | 35.8 | 47 | 39.5 | 34.2 | 27.9 | 92.6
Cc1nc(C)c(C(=O)Oc2ccccc2/C=C/C(=O)O)nc1C | 17.2 | 53.8 | 54.8 | 32.9 | 9.6 | 80.1 | 64.9 | 61.8 | 45.7 | 36.7
CCOC(=O)/C=C/c1ccccc1OC(=O)c1nc(C)c(C)nc1C | 42.4 | 39 | 16.6 | 11.8 | 110 | 40.9 | 36.9 | 17.8 | 9.6 | 108
COc1cc(/C=C/C(=O)O)ccc1OC(=O)c1nc(C)c(C)nc1C | 73.2 | 46.2 | 22.8 | 60.6 | 44.6 | 55.4 | 49.1 | 40.3 | 38.7 | 69.4
CCOC(=O)/C=C/c1ccc(OC(=O)c2nc(C)c(C)nc2C)c(OC)c1 | 64.4 | 49.9 | 37.2 | 31 | 58.4 | 71.6 | 69.7 | 53.3 | 52.4 | 38.6
COc1ccc(/C=C/C(=O)O)cc1OC(=O)c1nc(C)c(C)nc1C | 75.2 | 59.8 | 53.5 | 21.6 | 41.8 | 216.3 | 159.6 | 128.1 | 41.3 | 8.8
CCOC(=O)/C=C/c1ccc(OC)c(OC(=O)c2nc(C)c(C)nc2C)c1 | 39.7 | 32.2 | 20.6 | 22.3 | 143 | 117 | 89 | 60.1 | 26.4 | 29.9
Cc1nc(C)c(C(=O)Oc2ccc(Cl)cc2/C=C/C(=O)O)nc1C | 74.5 | 37 | 38.1 | 30 | 57.2 | 52.2 | 23.7 | 26 | 6.9 | 95.2
CCOC(=O)/C=C/c1cc(Cl)ccc1OC(=O)c1nc(C)c(C)nc1C | 61.7 | 44.4 | 36.9 | 26.3 | 67.1 | 11 | 33.7 | 62.5 | 64.9 | 36.1
COc1ccc(/C=C/C(=O)O)c(OC(=O)c2nc(C)c(C)nc2C)c1 | 40.9 | 34.1 | 35.1 | 16.5 | 134 | 18 | 31.6 | -52.1 | 39.7 | 115
CCOC(=O)/C=C/c1ccc(OC)cc1OC(=O)c1nc(C)c(C)nc1C | 47 | 18.7 | 32.6 | 84.2 | 28.2 | 39.9 | 20.7 | 16.9 | -57.6 | 138
COc1ccc(OC(=O)c2nc(C)c(C)nc2C)c(/C=C/C(=O)O)c1 | 59.8 | 48.8 | 46.5 | 43.4 | 49 | 79.2 | 62.9 | 45 | 21.7 | 48.6
CCOC(=O)/C=C/c1cc(OC)ccc1OC(=O)c1nc(C)c(C)nc1C | 60.7 | 72.9 | 73.9 | 70.5 | 196 | 46.2 | 27.8 | 23.4 | 15.9 | 105
COc1cc(/C=C/C(=O)O)cc(OC)c1OC(=O)c1nc(C)c(C)nc1C | 52.1 | 51.2 | 17.4 | 12 | 82.3 | 163 | 96.6 | 24 | 5.7 | 34.7
CCOC(=O)/C=C/c1cc(OC)c(OC(=O)c2nc(C)c(C)nc2C)c(OC)c1 | 59.5 | 55.9 | 47.2 | 44 | 37.5 | -47 | -13.6 | 20.9 | 96.6 | 21.4
Cc1nc(C)c(C(=O)Oc2ccc(/C=C/C(=O)O)cc2O)nc1C | 53.6 | 44.5 | 25 | 32.1 | 84.6 | 601.4 | 284.8 | 271.1 | 92.8 | 2.2
CCOC(=O)/C=C/c1cc(OC)c(O)c(OC)c1 |  |  |  |  |  | 69.1 | 32 | 24.9 | 4.9 | 67.2
O=C(O)/C=C/c1ccc(O)c(O)c1 [CAFFEIC ACID] |  |  |  |  |  | 155.6 | 149.5 | 108.5 | 16.7 | 12.6
COC(=O)[C@H](c1ccccc1Cl)N1CCc2sccc2C1 [CLOPIDOGREL] | 94.5 | 92.3 | 77.6 | 86.9 | 7.6 |  |  |  |  | 
O=C(O)/C=C/c1ccc(O)cc1 [COUMARIC ACID] | 54.5 | 53.2 | 29.9 | 17.2 | 74.8 |  |  |  |  | 
CCOC(=O)/C=C/c1ccc(O)c(O)c1 [ETHYL CAFFEATE] |  |  |  |  |  | 146.9 | 134.8 | 88.4 | 80.4 | 11.6
CCOC(=O)/C=C/c1ccc(O)c(OC)c1 [ETHYL FERULATE] | 26.5 | 17.9 | 11.5 | 4 | 193 |  |  |  |  | 
CCOC(=O)/C=C/c1ccc(O)cc1 [ETHYL P-COUMARATE] | 37.9 | 25.5 | 16.4 | 5.8 | 130 |  |  |  |  | 
COc1ccc(/C=C/C(=O)O)cc1O [ISOFERULIC ACID] |  |  |  |  |  | 81.9 | 62.9 | 36.8 | 34.9 | 29.3
O=C(O)CCCCC1CCSS1 (stereo not drawn) [LIPOIC ACID, ALPHA] |  |  |  |  |  | 58.1 | 48.7 | -12.3 | 30.5 | 68
O=C(O)/C=C/c1ccccc1O [O-COUMARIC ACID] | 42.9 | 30.5 | 21.4 | 10.8 | 116 |  |  |  |  | 
O=C(O)/C=C/c1ccc(Cn2ccnc2)cc1 [OZAGREL] | 36.8 | 25 | 4.8 | 6.4 | 144 |  |  |  |  | 
